Experimental data from the OligoGym collection.
After the bases stand the sugars from the 5' end (letter, count) and the backbone: PS all phosphorothioate, else s phosphorothioate and o phosphodiester by linkage. Methylation of C is not given here. e = 2'-O-(2-methoxyethyl) (MOE); k = constrained ethyl (cEt); d = 2'-deoxy (DNA); m = 2'-O-methyl

These sequences were tested against HSD17B13. Conditions: ASO, HepaRG, 0.02 µM.
In the case of “TCTTGACAATGGTTGC (sugars k3 d1 m1 d8 k3, PS)”, the target mRNA inhibition is reported as 25%.

Same assay, conditions: ASO, HepaRG, 0.078 µM
For “TCTTGACAATGGTTGC (sugars k3 d1 m1 d8 k3, PS)”, the target mRNA inhibition was 16%.

Same assay, conditions: ASO, HepaRG, 0.313 µM
In the case of “TCTTGACAATGGTTGC (sugars k3 d1 m1 d8 k3, PS)”, the target mRNA inhibition is reported as 39%.

Same assay, conditions: ASO, HepaRG, 1 µM
For “GCATGGCTACAGATTG (sugars kkdddddddddkekek, PS)”, the target mRNA inhibition was 41%.
For CAATCTAGCAACCTCT (sugars k3 d10 k3, PS), the target mRNA inhibition was 51%.
In the case of TTCCGGTAAGAATTTC (sugars k3 d10 k3, PS), the target mRNA inhibition is reported as 33%.
“TTAAACCTTCCCTGTG (sugars k3 d1 m1 d8 k3, PS)” showed a target mRNA inhibition of 23%.
For “TCTTAGCTGTGCACTC (sugars k3 d9 k3 e1, PS)”, the target mRNA inhibition was 52%.
Work on AAATCATGGTGTGGAG (sugars k3 d10 k3, PS) yielded a target mRNA inhibition of 1%.
Sequence TCTAAATACCCTTGGT (sugars k3 d10 k3, PS) has a target mRNA inhibition of 26%.
“CGATCCTATATACATC (sugars kkdddddddddkekek, PS)” gave a target mRNA inhibition of 29%.
“TAGTGCCAAACCAATG (sugars k3 d1 m1 d8 k3, PS)” showed a target mRNA inhibition of 55%.
AACAATATGGGATGAG (sugars k3 d10 k3, PS) was tested, and the target mRNA inhibition was 39%.
In the case of TCTAAAGTGCTGGTTG (sugars k3 d10 k3, PS), the target mRNA inhibition is reported as 34%.
TGCCAAACCAATGTTT (sugars k3 d10 k3, PS) gave a target mRNA inhibition of 32%.
With ACTCCCCAAACATGGA (sugars k3 d10 k3, PS) the target mRNA inhibition was 48%.
TAAAGTGCTAAGTAGT (sugars k3 d10 k3, PS) was tested, and the target mRNA inhibition was 50%.
TTAGCTGTGCACTCAT (sugars k3 d10 k3, PS) showed a target mRNA inhibition of 61%.
GTTTAGAAGTCAAACG (sugars k3 d10 k3, PS) gave a target mRNA inhibition of 0%.
Work on “AAGACATTCTAGCCTG (sugars kkdddddddddkekek, PS)” yielded a target mRNA inhibition of 25%.
Sequence “TCTTGACAATGGTTGC (sugars k3 d1 m1 d8 k3, PS)” has a target mRNA inhibition of 67%.
For “AATAUTGAGGCACTGG (sugars k3 d1 m1 d8 k3, PS)”, the target mRNA inhibition was 48%.
Work on AAAAAGCTCTATTGGT (sugars k3 d10 k3, PS) yielded a target mRNA inhibition of 0%.
Work on AATAGCCAGTACAGTT (sugars k3 d10 k3, PS) yielded a target mRNA inhibition of 46%.
In the case of “CTGAAATTGATACACC (sugars kkdddddddddkekek, PS)”, the target mRNA inhibition is reported as 45%.
For TGAAGTTAGTATAGTT (sugars k3 d10 k3, PS), the target mRNA inhibition was 43%.
ATTAAGCTTAGTATAT (sugars k3 d10 k3, PS) gave a target mRNA inhibition of 10%.
For CATATCCAGTAGGTGT (sugars k3 d10 k3, PS), the target mRNA inhibition was 37%.
GACTAATGCAAGATTT (sugars k3 d10 k3, PS) gave a target mRNA inhibition of 55%.
Work on “TACTTGAACAGTCTTA (sugars kkdddddddddkekek, PS)” yielded a target mRNA inhibition of 60%.
GTTGAGTAGTGTAAGC (sugars k3 d10 k3, PS) gave a target mRNA inhibition of 53%.
AGCTAGATACTCAATT (sugars k3 d10 k3, PS) gave a target mRNA inhibition of 2%.
Sequence “GAGTGCATCTTAAGAT (sugars k3 d9 k3 e1, PS)” has a target mRNA inhibition of 34%.
“GTATUCCATCTATCAG (sugars k3 d1 m1 d8 k3, PS)” gave a target mRNA inhibition of 41%.
In the case of ATTACTTCTGATGTCC (sugars k3 d10 k3, PS), the target mRNA inhibition is reported as 65%.
For CAGGAATGCATAAGAG (sugars k3 d10 k3, PS), the target mRNA inhibition was 33%.
Work on GTCTGCCTGCCTATTC (sugars k3 d10 k3, PS) yielded a target mRNA inhibition of 53%.
“ATTGUCTAAACATCTC (sugars k3 d1 m1 d8 k3, PS)” showed a target mRNA inhibition of 73%.
For “TGACAATGGTTGCCAC (sugars kkdddddddddkekek, PS)”, the target mRNA inhibition was 38%.
“AGACUTTGAGACTCTT (sugars k3 d1 m1 d8 k3, PS)” was tested, and the target mRNA inhibition was 48%.
TTTAAGAGGCATGAAA (sugars k3 d10 k3, PS) showed a target mRNA inhibition of 40%.
ATAACTACAAGAGGTT (sugars k3 d10 k3, PS) gave a target mRNA inhibition of 64%.
TAGGAACATTCCCTCT (sugars k3 d10 k3, PS) gave a target mRNA inhibition of 24%.
Work on ACAAAATCATGGTGTG (sugars k3 d10 k3, PS) yielded a target mRNA inhibition of 26%.
In the case of “AGCCAGTACAGTTCCT (sugars kkdddddddddkekek, PS)”, the target mRNA inhibition is reported as 49%.

Same assay, conditions: ASO, HepaRG, 1.25 µM
Sequence “TCTTGACAATGGTTGC (sugars k3 d1 m1 d8 k3, PS)” has a target mRNA inhibition of 60%.

Same assay, conditions: ASO, HepaRG, 5 µM
Work on “TCTTGACAATGGTTGC (sugars k3 d1 m1 d8 k3, PS)” yielded a target mRNA inhibition of 87%.
